Measurements taken from publication PMC8231556, “Inhibiting Endothelial Cell Function in Normal and Tumor Angiogenesis Using BMP Type I Receptor Macrocyclic Kinase Inhibitors” (Cancers, 2021).

Key:
Assay in all cases: radiometric kinase profiling (33 PanQinase)
Type in all cases: biochemical
LIMK1 = molecular target: T1, LIMK1 (Homo sapiens, UniProt P53667); settings: read-out: Inhibitory effect (%) LIMK1
T1 construct: purchased ProQinase (33PanQinase Activity Assay)
How it was run: (§1)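 Enzyme/substrate mixes were incubated with [γ-33P]-ATP and compound (added as a 0.1 μM solution in 10% DMSO) at 30 °C for 60 min, then stopped with H3PO4 and washed with NaCl. 33P incorporation was scintillation-counted, and residual activity (%) was normalized to untreated control and background.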

PAK2 = molecular target: T2, PAK2 (Homo sapiens, UniProt Q13177); settings: read-out: Inhibitory effect (%) PAK2
T2 construct: purchased ProQinase (33PanQinase Activity Assay)
How it was run: as §1

NUAK1 = molecular target: T3, NUAK1 (Homo sapiens, UniProt O60285); settings: read-out: Inhibitory effect (%) NUAK1
T3 construct: purchased ProQinase (33PanQinase Activity Assay)
T3 sequence (O60285 1-661): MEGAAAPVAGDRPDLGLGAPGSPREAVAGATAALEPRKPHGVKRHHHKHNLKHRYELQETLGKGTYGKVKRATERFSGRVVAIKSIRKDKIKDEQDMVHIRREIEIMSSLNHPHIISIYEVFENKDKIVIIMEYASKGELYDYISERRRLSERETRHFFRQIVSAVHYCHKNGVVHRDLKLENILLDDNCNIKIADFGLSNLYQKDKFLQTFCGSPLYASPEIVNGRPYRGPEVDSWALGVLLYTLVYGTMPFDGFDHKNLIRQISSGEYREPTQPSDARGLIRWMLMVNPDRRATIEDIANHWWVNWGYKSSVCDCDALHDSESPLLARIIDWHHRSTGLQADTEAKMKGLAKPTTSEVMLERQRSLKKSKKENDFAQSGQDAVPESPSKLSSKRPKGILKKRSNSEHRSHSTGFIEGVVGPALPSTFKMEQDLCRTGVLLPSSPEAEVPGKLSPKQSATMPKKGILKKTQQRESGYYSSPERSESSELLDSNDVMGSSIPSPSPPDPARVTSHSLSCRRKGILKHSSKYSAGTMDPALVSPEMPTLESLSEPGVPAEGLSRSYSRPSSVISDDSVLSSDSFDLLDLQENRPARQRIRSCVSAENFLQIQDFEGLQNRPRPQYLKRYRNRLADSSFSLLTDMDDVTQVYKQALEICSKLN
How it was run: as §1

RIPK2 = molecular target: T4, RIPK2 (Homo sapiens, UniProt O43353); settings: read-out: Inhibitory effect (%) RIPK2
T4 construct: purchased ProQinase (33PanQinase Activity Assay)
How it was run: as §1

NEK1 = molecular target: T5, NEK1 (Homo sapiens, UniProt Q96PY6); settings: read-out: Inhibitory effect (%) NEK1
T5 construct: purchased ProQinase (33PanQinase Activity Assay)
T5 sequence (Q96PY6 1-1258): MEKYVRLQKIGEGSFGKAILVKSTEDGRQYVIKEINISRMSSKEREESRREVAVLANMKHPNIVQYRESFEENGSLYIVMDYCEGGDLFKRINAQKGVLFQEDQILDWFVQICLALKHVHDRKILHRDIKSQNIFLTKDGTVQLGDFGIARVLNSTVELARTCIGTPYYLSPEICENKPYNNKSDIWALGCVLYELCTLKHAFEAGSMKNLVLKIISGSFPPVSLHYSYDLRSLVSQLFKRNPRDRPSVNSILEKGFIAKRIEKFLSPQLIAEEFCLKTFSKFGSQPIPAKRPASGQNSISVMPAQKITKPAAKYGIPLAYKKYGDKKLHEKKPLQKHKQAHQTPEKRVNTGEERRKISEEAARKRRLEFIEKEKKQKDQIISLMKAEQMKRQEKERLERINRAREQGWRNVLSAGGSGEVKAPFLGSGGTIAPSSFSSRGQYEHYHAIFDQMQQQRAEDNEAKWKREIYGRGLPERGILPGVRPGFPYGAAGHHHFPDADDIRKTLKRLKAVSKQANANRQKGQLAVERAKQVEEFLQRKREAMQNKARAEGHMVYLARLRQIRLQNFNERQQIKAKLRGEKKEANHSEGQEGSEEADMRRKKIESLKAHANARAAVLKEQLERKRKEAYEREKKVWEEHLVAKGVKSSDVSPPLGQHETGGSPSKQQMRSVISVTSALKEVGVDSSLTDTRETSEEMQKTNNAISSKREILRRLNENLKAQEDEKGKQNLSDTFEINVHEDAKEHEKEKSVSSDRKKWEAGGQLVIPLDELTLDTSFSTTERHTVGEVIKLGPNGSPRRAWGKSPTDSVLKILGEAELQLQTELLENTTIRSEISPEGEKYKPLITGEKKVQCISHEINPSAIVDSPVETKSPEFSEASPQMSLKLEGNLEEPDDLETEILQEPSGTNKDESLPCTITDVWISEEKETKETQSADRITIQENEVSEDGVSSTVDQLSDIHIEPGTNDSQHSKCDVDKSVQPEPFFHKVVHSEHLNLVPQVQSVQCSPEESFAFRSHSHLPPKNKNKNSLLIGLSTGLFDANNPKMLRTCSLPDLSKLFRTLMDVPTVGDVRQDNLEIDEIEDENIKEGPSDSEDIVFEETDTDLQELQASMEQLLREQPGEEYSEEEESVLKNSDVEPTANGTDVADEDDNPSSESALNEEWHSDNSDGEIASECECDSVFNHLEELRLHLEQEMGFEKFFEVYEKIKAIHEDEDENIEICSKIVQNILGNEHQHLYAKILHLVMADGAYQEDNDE
How it was run: as §1

PLK1 = molecular target: T6, PLK1 (Homo sapiens, UniProt P53350); settings: read-out: Inhibitory effect (%) PLK1
T6 construct: purchased ProQinase (33PanQinase Activity Assay)
How it was run: as §1

PRKACA = molecular target: T7, PRKACA (Homo sapiens, UniProt P17612); settings: read-out: Inhibitory effect (%) PRKACA
T7 construct: purchased ProQinase (33PanQinase Activity Assay)
How it was run: as §1

JAK1 = molecular target: T8, JAK1 (Homo sapiens, UniProt P23458); settings: read-out: Inhibitory effect (%) JAK1
T8 construct: purchased ProQinase (33PanQinase Activity Assay)
How it was run: as §1

T1 sequence (P53667 whole entry): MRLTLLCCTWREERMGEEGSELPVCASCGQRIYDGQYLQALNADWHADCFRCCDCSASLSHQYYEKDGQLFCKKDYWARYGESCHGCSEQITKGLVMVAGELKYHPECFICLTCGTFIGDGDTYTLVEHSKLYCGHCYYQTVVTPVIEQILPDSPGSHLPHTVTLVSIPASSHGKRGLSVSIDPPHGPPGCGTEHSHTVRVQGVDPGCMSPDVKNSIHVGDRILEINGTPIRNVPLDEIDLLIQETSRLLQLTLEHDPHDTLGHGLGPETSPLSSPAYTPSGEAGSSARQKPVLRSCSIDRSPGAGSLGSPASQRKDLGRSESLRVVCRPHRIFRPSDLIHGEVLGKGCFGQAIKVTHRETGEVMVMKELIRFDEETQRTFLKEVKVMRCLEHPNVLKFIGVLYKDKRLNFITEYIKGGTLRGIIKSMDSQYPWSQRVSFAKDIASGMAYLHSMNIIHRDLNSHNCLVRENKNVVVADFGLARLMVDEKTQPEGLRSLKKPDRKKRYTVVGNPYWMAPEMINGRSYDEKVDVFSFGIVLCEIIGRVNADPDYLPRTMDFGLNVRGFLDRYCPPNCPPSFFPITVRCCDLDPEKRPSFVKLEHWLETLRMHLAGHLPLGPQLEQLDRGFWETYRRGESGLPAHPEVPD
T4 sequence (O43353 whole entry): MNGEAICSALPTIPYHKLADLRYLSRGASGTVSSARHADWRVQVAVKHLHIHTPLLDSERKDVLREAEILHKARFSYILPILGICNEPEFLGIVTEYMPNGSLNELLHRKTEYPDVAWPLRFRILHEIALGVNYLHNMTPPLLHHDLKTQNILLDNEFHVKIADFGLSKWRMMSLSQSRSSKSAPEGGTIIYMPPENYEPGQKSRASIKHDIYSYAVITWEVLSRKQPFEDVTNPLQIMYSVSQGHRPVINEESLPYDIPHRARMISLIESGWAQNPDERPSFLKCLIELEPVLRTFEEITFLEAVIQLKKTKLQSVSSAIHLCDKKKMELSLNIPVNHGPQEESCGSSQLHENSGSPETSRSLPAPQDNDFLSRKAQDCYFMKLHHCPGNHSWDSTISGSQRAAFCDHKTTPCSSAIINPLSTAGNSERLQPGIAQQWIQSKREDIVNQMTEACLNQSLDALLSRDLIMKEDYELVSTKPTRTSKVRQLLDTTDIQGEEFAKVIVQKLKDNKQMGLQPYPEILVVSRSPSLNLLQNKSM
T2 sequence (Q13177 whole entry): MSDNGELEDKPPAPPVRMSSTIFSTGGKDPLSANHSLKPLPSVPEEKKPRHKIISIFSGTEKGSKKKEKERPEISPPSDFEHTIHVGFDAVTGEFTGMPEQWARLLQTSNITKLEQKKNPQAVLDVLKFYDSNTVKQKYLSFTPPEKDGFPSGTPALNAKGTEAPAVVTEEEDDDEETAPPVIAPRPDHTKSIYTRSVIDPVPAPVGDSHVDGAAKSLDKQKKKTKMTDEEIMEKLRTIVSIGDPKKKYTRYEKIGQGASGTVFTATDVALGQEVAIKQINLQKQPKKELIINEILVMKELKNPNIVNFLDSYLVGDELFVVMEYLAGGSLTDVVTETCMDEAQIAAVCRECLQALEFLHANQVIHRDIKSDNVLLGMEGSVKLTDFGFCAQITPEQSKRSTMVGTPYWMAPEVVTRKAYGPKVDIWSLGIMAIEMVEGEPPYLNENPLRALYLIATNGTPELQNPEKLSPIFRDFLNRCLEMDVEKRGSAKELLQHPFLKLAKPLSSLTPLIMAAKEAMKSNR
T8 sequence (P23458 whole entry): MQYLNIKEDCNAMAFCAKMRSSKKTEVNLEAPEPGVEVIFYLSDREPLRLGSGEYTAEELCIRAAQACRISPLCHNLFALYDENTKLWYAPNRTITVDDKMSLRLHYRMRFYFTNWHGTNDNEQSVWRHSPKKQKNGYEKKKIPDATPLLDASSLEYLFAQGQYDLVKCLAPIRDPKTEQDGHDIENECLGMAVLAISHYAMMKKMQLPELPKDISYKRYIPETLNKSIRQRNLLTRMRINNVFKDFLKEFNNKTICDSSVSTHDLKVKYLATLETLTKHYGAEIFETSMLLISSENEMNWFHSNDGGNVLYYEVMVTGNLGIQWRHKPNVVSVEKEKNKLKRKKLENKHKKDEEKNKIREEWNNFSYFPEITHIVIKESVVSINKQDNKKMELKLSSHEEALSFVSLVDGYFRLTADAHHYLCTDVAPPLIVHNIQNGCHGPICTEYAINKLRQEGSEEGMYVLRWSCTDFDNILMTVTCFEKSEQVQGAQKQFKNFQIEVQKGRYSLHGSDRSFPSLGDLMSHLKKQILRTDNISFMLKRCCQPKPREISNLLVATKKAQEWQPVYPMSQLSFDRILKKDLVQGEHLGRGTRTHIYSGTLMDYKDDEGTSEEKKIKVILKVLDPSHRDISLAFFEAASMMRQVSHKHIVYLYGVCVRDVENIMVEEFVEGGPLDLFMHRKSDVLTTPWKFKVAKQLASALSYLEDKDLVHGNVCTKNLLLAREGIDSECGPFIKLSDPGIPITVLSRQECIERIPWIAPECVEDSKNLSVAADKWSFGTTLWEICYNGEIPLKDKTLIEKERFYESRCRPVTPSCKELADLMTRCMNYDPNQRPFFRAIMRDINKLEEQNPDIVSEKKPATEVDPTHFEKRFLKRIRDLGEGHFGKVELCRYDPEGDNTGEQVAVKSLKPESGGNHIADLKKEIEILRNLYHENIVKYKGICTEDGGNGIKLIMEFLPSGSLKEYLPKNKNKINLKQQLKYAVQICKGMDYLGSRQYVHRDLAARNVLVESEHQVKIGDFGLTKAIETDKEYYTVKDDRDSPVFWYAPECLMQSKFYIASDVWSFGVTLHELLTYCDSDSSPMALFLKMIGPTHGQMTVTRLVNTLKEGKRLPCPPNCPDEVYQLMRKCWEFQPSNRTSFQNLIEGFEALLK
T6 sequence (P53350 whole entry): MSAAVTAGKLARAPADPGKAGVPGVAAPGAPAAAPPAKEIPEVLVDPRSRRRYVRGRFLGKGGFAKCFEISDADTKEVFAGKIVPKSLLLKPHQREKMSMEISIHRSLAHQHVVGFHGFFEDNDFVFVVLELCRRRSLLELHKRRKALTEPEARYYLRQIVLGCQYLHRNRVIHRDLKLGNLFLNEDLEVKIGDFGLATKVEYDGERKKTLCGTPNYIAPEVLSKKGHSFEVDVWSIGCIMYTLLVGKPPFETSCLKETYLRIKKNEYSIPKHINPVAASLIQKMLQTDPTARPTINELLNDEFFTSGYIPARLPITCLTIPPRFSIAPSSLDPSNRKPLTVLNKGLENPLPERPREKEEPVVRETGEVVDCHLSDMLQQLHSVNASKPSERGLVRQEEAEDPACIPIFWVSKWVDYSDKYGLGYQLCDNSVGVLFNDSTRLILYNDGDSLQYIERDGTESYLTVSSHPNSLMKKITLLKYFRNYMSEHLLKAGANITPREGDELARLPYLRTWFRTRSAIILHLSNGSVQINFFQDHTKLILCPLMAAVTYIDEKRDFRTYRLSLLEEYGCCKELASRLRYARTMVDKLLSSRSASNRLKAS

Row | SMILES | inhibition at 0.1 µM (LIMK1) | inhibition at 0.1 µM (PAK2) | inhibition at 0.1 µM (NUAK1) | inhibition at 0.1 µM (RIPK2) | inhibition at 0.1 µM (NEK1) | inhibition at 0.1 µM (PLK1) | inhibition at 0.1 µM (PRKACA) | inhibition at 0.1 µM (JAK1)
1 | CN1CCC(=O)NCCNc2ccn3ncc(c3n2)-c2cccc(c2)C1 [OD29] | 1.15% | 7.91% | 5.32% | 62.5% | 12.6% | -21.2% | 9.09% | -3.74%
2 | c1ccc2c(-c3cnn4cc(-c5ccc(N6CCNCC6)cc5)cnc34)ccnc2c1 [LDN-193189, reference compound] | 8.92% | -2.66% | -20.2% | 91.1% | -11.9% | -21.7% | -14.1% | -10.9%
3 | CN1CCc2cccc(c2)Nc2nccc(n2)N2CCCc3cc(ccc32)C1 [OD16] | 30.3% | -27.1% | 74.3% | 36.5% | -6.3% | -5.35% | -19.5% | 23.1%
